Data as given in patent US20140342065A1 (priority 2012, published 2014).
Read-outs that look alike come from different tables or passages of the source.

Key:
[1] = test system: Banana, Tomato and slices of avocado; yeast and/or bacteria
Excerpt: Representative samples include fruits (Banana), and vegetables (Tomato) and slices of avocado. Experiments were repeated at least four times and each food category included a minimum of six items in each group. The containers were made of gas impermeable Plexiglas that snugly fitted onto the container rim. Fruits were placed on regular kitchen towels that covered the bottom of the containers. Control and experimental group (Exp) of fruits were placed in separate containers. The amount of H2S—H2 gas within the Exp containers varied from 5-15 ppm during the course of exposure. When the level dropped below 5 ppm, the H2 gas was substituted. Experiment was carried out at room temperature for the durations shown. […] Growth of bacteria and yeast was checked by taking samples of food and streaking them over agar. Samples from each fruit were diluted in phosphate buffered saline, pH 7.4. From each sample, 20 microliters was streaked on agar plates and plates were maintained either at room temperature or at 37° C.

[2] = test system: strawberries; micro-organisms
Description: Fruits were treated without or with gas with each gas at 40 ppm. N=12, Differences between control and treated groups (P<0.05-P<0.005).

bacteria and yeast = assay: Agar plates stored with H2S gas 40 ppm (FIG. 11, 104); format: cell-based; settings: H2S 40 ppm
Excerpt: Representative samples of foods shown include fruits, and vegetables. […] Control foods were stored in closed containers. The containers were made of aluminum with a plastic lid that snugly fitted onto the container rim. […] The inlet and outlet valves were then closed. Using a H2S gas detector capable of detecting 1 to 500 ppm of H2S, no H2S was detected outside the chamber. […] There is small change in color, consistency, and of the same food group and there is no evidence of growth of yeast in the H2S gas-treated group. Growth of bacteria and yeast was checked by taking samples of food and streaking them over agar. […] Strawberry 80. […] This growth was quite evident on day 5 (arrows, 81). The fruit also lost its consistency and is discolored. […] Banana, 86. Growth of yeast is seen by day 8 in the control group. The fruit also lost its consistency and is discolored. […] A slice of banana 99. […] The fruit also lost its consistency and is discolored. […] Pistachio 101. […] Green bananas 102. Green bananas in each group were used in this experiment. The control bananas ripened, developed a yellow color that still maintained some of their green color on day 8. Tomatoes 103. Green tomatoes in each group were used in this experiment. […] Samples from each fruit were diluted in phosphate buffered saline, pH 7.4. […]

humans = settings: cited from earlier work
[3] = 0.01-0.1 mol/liter solutions at 18° C.; cited from earlier work
mice = settings: cited from earlier work
[4] = test system: Strawberry, Blackberry, Raspberry, Banana, Tomato and Avocado; mold and/or bacteria
Excerpt: Representative samples include but are not limited to (Strawberry, Blackberry, Raspberry, Banana, Tomato and Avocado). Experiments were repeated at least four times and each food category included a minimum of six items in each group. The containers were made of gas impermeable plexi-glass that snugly fitted onto the container rim. Fruits were placed on regular kitchen towels that covered the bottom of the container. Control and experimental group (Exp) of fruits were placed in separate containers. […] When the level dropped below 5 ppm, the H2 gas was substituted. Experiment was carried out at room temperature for the durations shown.

[5] = in water; cited from earlier work
[6] = in water; cited from earlier work; remark: listed apart in the source

## [He] [Helium]
[1]; closed environment, room temperature
  food spoilage: prevents food spoilage
[2]
  growth of micro-organisms: retarded but did not prevent growth of micro-organisms
[2]; relative to Hydrogen
  effect on ripening and oxidation: greater than Hydrogen
  prevention of food spoilage: comparable with Hydrogen

## S [Hydrogen Sulfide]
Bacteria and yeast
  time without growth following initiation of cultures: up to 2 months
humans; 5 minute exposure
  lethal concentration for 50% of humans (LC50): 800 ppm
humans; after a few inhalations
  concentration at which the olfactory nerve is paralyzed: 100-150 ppm
humans; even after a single breath
  concentration causing immediate collapse with loss of breathing: over 1000 ppm
humans; in vivo
  borderline concentration for eye irritation: 10-20 ppm
  concentration causing strong stimulation of the central nervous system and rapid breathing, leading to loss of breathing: 530-1000 ppm
  concentration leading to eye damage: 50-100 ppm
  concentration leading to pulmonary edema with the possibility of death: 320-530 ppm
  concentration with an exposure limit of 8 hours per day: < 10 ppm
  recognition threshold, concentration at which 50% of humans can detect the odor: 0.0047 ppm
  threshold level at which the oxidative (detoxifying) enzymes get overwhelmed: 300-350 ppm
[3]
  pKa (giving the hydro-sulfide ion HS^−): 6.9
mice; 81 ppm H2S, 6 hours
  health consequences after the procedure: no negative health consequences
mice; mice treated with Hydrogen Sulfide (81 ppm)
  blood pressure: did not significantly decrease
mice; range of 80 ppm
  side effects: no side effects

## [HH] [Hydrogen]
[1]
  food spoilage: prevents food spoilage
[4]; H2 5-45 ppm, closed container, room temperature
  food spoilage and growth of mold and/or bacteria: prevents food spoilage and retards but does not inhibit growth of mold and/or bacteria
[4]; Strawberry, Raspberry, Blackberry, control day 3, less severe than control
  day on which growth of mold is evident: 4 days
[4]; day 4
  discoloration and yeast growth on avocado slice: only moderate surface discoloration and no evidence of growth of yeast
[4]; day 4, versus control
  ripening and surface discoloration of un-ripened bananas: less ripening and discoloration
  ripening of un-ripened tomato: less ripening
[5]
  reaction rate constant k, .O^− + H2: 8e+07 M⁻¹ s⁻¹
[6]
  reaction rate constant k, .OH + H2: 4.2e+07 M⁻¹ s⁻¹
